From US8252764B2, “Compositions and methods of use of targeting peptides against placenta and adipose tissues” (priority 2000, dated 2012)
Peptide text beside a SMILES is read from it.

Legend:
SK-RC-49/APA cells = experiment: Phage binding specificity assay on SK-RC-49/APA cells; type: cell-based; conditions: soluble peptide
Protocol: The cell binding assay was performed with an input of 10^9 TU as described for the cell panning. The specificity was confirmed by adding […] (SEQ ID NO:56) peptide to the binding medium in increasing concentrations. For phage binding on immunocaptured APA, wells were blocked for 1 h at room temperature with PBS/3% BSA and incubated with 10^9 TU for 1 h at room temperature in 50 μl PBS/3% BSA. After eight washes in PBS/1% BSA/0.01% Tween-20 and two washes in PBS, phage were rescued by adding 200 μl of exponentially growing K91Kan E. coli. Each experiment was repeated at least three times.

Aminopeptidase A (APA) = molecular target: T1, Aminopeptidase A (APA) (Homo sapiens, UniProt Q07075); experiment: APA enzyme assay; type: biochemical
T1 construct: transfected with an expression vector encoding full-length APA cDNA; expressed in transfected cells; host or cells: SK-RC-49 renal carcinoma cells, stably transfected (SK-RC-49/APA)
T1 sequence (Q07075 whole entry): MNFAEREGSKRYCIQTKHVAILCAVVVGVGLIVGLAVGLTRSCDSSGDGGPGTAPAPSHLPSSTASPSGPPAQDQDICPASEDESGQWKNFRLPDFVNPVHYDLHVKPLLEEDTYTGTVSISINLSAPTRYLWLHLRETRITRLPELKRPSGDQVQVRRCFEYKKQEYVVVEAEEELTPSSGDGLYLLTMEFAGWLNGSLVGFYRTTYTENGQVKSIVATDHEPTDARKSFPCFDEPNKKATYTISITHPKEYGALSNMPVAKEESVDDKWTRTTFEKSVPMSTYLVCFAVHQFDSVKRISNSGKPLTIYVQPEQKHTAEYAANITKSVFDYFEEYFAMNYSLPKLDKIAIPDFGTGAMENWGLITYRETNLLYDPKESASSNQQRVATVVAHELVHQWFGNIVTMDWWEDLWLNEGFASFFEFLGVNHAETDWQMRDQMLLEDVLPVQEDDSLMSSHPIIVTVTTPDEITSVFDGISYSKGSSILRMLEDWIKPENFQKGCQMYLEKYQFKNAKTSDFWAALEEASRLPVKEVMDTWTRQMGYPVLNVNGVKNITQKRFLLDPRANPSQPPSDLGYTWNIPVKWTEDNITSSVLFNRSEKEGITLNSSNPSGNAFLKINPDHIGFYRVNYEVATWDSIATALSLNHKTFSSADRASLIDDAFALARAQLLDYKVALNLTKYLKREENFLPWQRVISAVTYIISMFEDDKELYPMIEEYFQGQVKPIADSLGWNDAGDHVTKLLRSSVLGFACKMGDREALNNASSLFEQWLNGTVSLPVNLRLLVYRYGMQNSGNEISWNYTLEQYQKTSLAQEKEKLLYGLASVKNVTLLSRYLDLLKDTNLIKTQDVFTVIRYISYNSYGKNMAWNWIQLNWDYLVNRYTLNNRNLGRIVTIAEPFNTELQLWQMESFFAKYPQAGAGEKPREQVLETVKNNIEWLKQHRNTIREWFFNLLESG

aminopeptidase N = aminopeptidase N (Homo sapiens, UniProt P15144); experiment: Aminopeptidase N activity; type: biochemical; conditions: data not shown
Sequence of aminopeptidase N (P15144 whole entry, species assumed): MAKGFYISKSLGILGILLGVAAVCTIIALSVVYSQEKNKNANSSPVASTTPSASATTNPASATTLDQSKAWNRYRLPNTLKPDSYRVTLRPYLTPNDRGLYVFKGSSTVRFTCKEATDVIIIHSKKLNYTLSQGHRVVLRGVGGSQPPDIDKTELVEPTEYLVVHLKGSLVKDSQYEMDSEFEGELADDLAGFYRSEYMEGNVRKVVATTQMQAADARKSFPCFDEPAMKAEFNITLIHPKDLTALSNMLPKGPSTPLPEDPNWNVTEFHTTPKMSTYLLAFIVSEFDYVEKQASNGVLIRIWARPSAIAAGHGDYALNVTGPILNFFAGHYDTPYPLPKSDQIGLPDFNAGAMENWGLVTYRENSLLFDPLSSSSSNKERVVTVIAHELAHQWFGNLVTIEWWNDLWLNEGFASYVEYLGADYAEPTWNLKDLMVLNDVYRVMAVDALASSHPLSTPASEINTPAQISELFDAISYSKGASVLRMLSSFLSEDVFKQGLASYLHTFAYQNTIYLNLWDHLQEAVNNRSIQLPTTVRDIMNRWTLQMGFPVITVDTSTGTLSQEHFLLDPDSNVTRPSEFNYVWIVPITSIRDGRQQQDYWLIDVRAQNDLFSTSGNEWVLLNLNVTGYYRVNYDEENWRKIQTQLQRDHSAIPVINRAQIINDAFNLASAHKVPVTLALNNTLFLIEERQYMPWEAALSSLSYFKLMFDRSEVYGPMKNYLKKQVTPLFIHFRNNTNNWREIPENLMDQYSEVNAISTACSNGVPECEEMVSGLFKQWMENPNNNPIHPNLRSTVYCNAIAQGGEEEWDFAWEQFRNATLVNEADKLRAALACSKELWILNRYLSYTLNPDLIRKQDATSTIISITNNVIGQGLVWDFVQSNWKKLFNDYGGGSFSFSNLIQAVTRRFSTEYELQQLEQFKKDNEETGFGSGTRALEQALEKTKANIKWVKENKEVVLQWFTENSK

HUVECs [1] = experiment: HUVEC chemotaxis assay (Boyden chamber); type: cell-based, human; conditions: 1 mM, VEGF-A (10 ng/ml), Boyden chamber
Protocol: FIG. 33. […] (SEQ ID NO:56) inhibits HUVEC migration. HUVECs were stimulated with VEGF-A (10 ng/ml). The assay was performed in a Boyden microchemotaxis chamber, and cells were allowed to migrate through an 8-μm pore filter for 5 h at 37° C. […] (SEQ ID NO:57) (control) and […] (SEQ ID NO:56) peptides were tested at 1 mM concentration. Migrated cells were stained and five high-power fields (magnitude 100×) for each microwell were counted. Error bars are the standard error of the means of triplicate microwells.
A cell migration assay was performed in a 48-well microchemotaxis chamber (NeuroProbe, Gaithersburg, Md.) according to Bussolini et al. (1995). Polyvinylpyrrolidone-free polycarbonate filters (Nucleopore, Cambridge, Mass.) with 8-μm pores were coated with 1% gelatin for 10 min at room temperature and equilibrated in M199 medium supplemented with 2% FCS. […] (SEQ ID NO:56) or control […] (SEQ ID NO:57) peptide (1 mM) was placed in the lower compartment of a Boyden chamber in M199 medium supplemented with 2% FCS and 10 ng/ml VEGF-A (R&D System). Subconfluent cultures that had been starved overnight were harvested in PBS containing 2.5 mM EDTA, washed once in PBS, and resuspended in M199 medium containing 2% FCS at a final concentration of 2×10^6 cells/ml. […] Five random high-power fields (magnitude 100×) were counted in each well. […]

HUVECs [2] = experiment: HUVEC cell growth assay (crystal violet); type: cell-based, human; conditions: 1 mM, VEGF-A (10 ng/ml)
Protocol: FIG. 34. […] (SEQ ID NO:56) inhibits HUVEC proliferation. Cells were stimulated with VEGF-A (10 ng/ml), and growth was evaluated at the indicated times by a colorimetric assay based on crystal violet staining. Error bars are the standard error of the means of triplicate wells. Each experiment was repeated at least twice with similar results.
HUVECs were seeded in 48-well plates (10^4 cells/well) and allowed to attach for 24 h in complete M199 medium. The cells were then starved in M199 medium containing 2% FCS for 24 h. […] (SEQ ID NO:56) or control […] (SEQ ID NO:57) peptide (1 mM) was added to the wells in medium containing 2% FCS and 10 ng/ml VEGF-A (R&D System, Abingdom, UK). After incubation for the indicated times, cells were fixed in 2.5% glutaraldehyde, stained with 0.1% crystal violet in 20% methanol, and solubilized in 10% acetic acid. All treatments were done in triplicate. Cell growth was evaluated by measuring the O.D. at 590 nm in a microplate reader (Bio-Rad Laboratories, Hercules, Calif.). A calibration curve was established and a linear correlation between O.D. and cell counts was observed between 10^3 and 10^5 cells.

HUVECs [3] = experiment: Three-dimensional cell culture on Matrigel; type: cell-based, human; conditions: HUVECs on three-dimensional matrix gel, not shown
Protocol: Matrigel (Collaborative Research, Bedford, Mass.) was added at 100 μl per well to 48-well tissue culture plates and allowed to solidify for 10 min at 37° C. HUVECs were starved for 24 h in M199 medium supplemented with 2% FCS before being harvested in PBS containing 2.5 mM EDTA. 10^4 cells were gently added to each of the triplicate wells and allowed to adhere to the gel coating for 30 min at 37° C. Then, medium was replaced with indicated concentrations of […] (SEQ ID NO:56) or […] (SEQ ID NO:57) peptides in complete medium. The plates were photographed after 24 h with an inverted microscope (Canon). The assay was repeated three times.

[4] = system: chicken chorioallantoic membrane (CAM); experiment: CAM assay for angiogenesis; type: in vivo
Protocol: In vivo angiogenesis was evaluated by a CAM assay (Ribatti et al., 1994). Fertilized eggs from White Leghorn chickens were maintained in constant humidity at 37° C. On the third day of incubation, a square window was opened in the eggshell and 2-3 ml of albumen was removed to detach the developing CAM from the shell. The window was sealed with a glass plate of the same size and the eggs were returned to the incubator. At day 8, 1 mm^3 sterilized gelatin sponges (Gelfoam, Upjohn Co, Kalamazoo, […]) were adsorbed with VEGF-A (20 ng, R&D System) and either […] (SEQ ID NO:56) or control […] (SEQ ID NO:57) peptide (1 mM) in 3 μl PBS and implanted on the top of the growing CAMs under sterile conditions. CAMs were examined daily until day 12 and photographed in ovo with a Leica stereomicroscope. Capillaries emerging from the sponge were counted. The assay was repeated twice.

## CC[C@H](C)[C@H](NC(=O)[C@H](CO)NC(=O)[C@H](CCC(=O)O)NC(=O)[C@H](CS)NC(=O)[C@H](CCC(=O)O)NC(=O)[C@H](CCCNC(=N)N)NC(=O)[C@@H]1CCCN1C(=O)[C@@H](N)CS)C(=O)N[C@@H](CS)C(=O)O (H-CPRECESIC-OH)
SK-RC-49/APA cells; data not shown
  effect on binding of CYNLCIRECESICGADGACWTWCADGCSRSC phage: displaced
SK-RC-49/APA cells; not shown
  competition with CPKVCPRECESNC phage for binding to SK-RC-49/APA cells: competed
Aminopeptidase A (APA); SK-RC-49/APA cells, α-glutamyl-p-nitroanilide, 2 h at 37° C., read-out: IC50 for APA enzyme inhibition
  IC50: 800 µM
Aminopeptidase A (APA); at the highest concentration tested
  reduction of APA enzyme activity: 60%
Aminopeptidase N
  effect on aminopeptidase N activity: did not affect the activity
HUVECs [1]
  inhibition of chemotaxis of HUVECs: 70%
HUVECs [2]
  inhibition of cell proliferation: 50%
HUVECs [3]
  formation of capillary-like network: progressive impairment of the formation of this network
[4]; 1 mM, number of capillaries emerging from the sponge
  inhibition of neovascularization induced by VEGF-A: 40%
[4]; VEGF-A 20 ng, peptide 1 mM, mean and standard error, two experiments
  BLOOD VESSEL NUMBERS: 5.5 ± 1.41
